# Measurements taken from patent publication US7759345B2, “Antitumoral derivatives of ET-743” (priority 2001, dated 2010).
# Where two headings read alike, the source gives them in different places.
# Legend:
# [1] = system: HT-29; test: Inhibition of cell growth by counting cells, HT-29; assay type: cell-based, human; details: Homo sapiens, HT-29, 72 h, read-out: IC50 (molar) HT-29
# Procedure, shortened: (§1)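 Cells were seeded at 1×10^4 per well in EMEM with 5% FCS containing test sample and incubated 3 days at 37 °C, 5% CO2, in duplicate. Cells were then trypsinized and Coulter-counted, and growth was expressed relative to drug-free controls. IC50 (50% growth inhibition) was taken from dose-response curves.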
# [2] = system: MEL-28; test: Inhibition of cell growth by counting cells, MEL-28; assay type: cell-based, human; details: Homo sapiens, SK-MEL-28, 72 h, read-out: IC50 (molar) MEL-28
# Procedure, shortened: as §1
# [3] = system: DU-145; test: Inhibition of cell growth by counting cells, DU-145; assay type: cell-based, human; details: Homo sapiens, DU-145, 72 h, read-out: IC50 (molar) DU-145
# Procedure, shortened: as §1
# [4] = system: P-388; test: Inhibition of cell growth by counting cells, P-388; assay type: cell-based, mouse; details: Mus musculus, P388, 72 h, read-out: IC50 (molar) P-388
# Procedure, shortened: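 Mouse P-388 lymphoid neoplasm suspension cells seeded at 1×10^4 cells/well in EMEM 5% FCS containing graded sample concentrations, in duplicate alongside drug-free growth controls. Cells counted by Coulter counter; % growth vs untreated gives dose-response curves, IC50 = concentration producing 50% growth inhibition.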
# [5] = system: A-549; test: Inhibition of cell growth by counting cells, A-549; assay type: cell-based, human; details: Homo sapiens, A549, 72 h, read-out: IC50 (molar) A-549
# Procedure, shortened: as §1
SMILES,IC50 ([1]; three days of incubation) [nM],IC50 ([2]; three days of incubation) [nM],IC50 ([3]; three days of incubation) [nM],IC50 ([4]; three days of incubation) [nM],IC50 ([5]; three days of incubation) [nM],IC50 [3] [nM],IC50 [1] [nM],IC50 [2] [nM],IC50 [4] [nM],IC50 [5] [nM]
COc1cc2c(cc1OC(=O)OC(C)(C)C)CCN[C@]21CS[C@@H]2c3c(O)c(C)c4c(c3[C@H](COC1=O)N1C2[C@H]2c3c(cc(C)c(OC)c3O)C[C@@H]([C@@H]1C#N)N2C)OCO4 (stereo partly shown) [Compound 106],1.21,1.21,1.21,1.21,1.21,–,–,–,–,–
COc1cc2c(cc1OC(=O)OC(C)(C)C)CCN[C@]21CS[C@@H]2c3c(OC(=O)/C=C/c4ccccc4)c(C)c4c(c3[C@H](COC1=O)N1C2[C@H]2c3c(cc(C)c(OC)c3O)C[C@@H]([C@@H]1C#N)N2C)OCO4 (stereo partly shown) [Compound 113],10.4,10.4,10.4,10.4,10.4,–,–,–,–,–
CCCCCCCC(=O)Oc1cc2c(cc1OC)[C@@]1(CS[C@@H]3c4c(OC(C)=O)c(C)c5c(c4[C@H](COC1=O)N1C3[C@H]3c4c(cc(C)c(OC)c4OC(=O)CCCCCCC)C[C@@H]([C@@H]1C#N)N3C)OCO5)NCC2 (stereo partly shown) [Compound 15],97.8,97.8,97.8,97.8,97.8,–,–,–,–,–
C=CCOC(=O)NC(CSCC1c2ccccc2-c2ccccc21)C(=O)Oc1cc2c(cc1OC)[C@@]1(CS[C@@H]3c4c(OC(C)=O)c(C)c5c(c4[C@H](COC1=O)N1C3[C@H]3c4c(cc(C)c(OC)c4O)C[C@@H]([C@@H]1O)N3C)OCO5)NCC2 (stereo partly shown) [Compound 62],0.888,0.888,0.888,0.888,0.888,–,–,–,–,–
CCCCCCCCCCCCCCCC(=O)Oc1cc2c(cc1OC)[C@@]1(CS[C@@H]3c4c(OC(C)=O)c(C)c5c(c4[C@H](COC1=O)N1C3[C@H]3c4c(cc(C)c(OC)c4O)C[C@@H]([C@@H]1C#N)N3C(=O)OC(C)(C)C)OCO5)NCC2 (stereo partly shown) [Compound 197],9130,9130,9130,9130,9130,–,–,–,–,–
CCCCCCCCCCCCCCCC(=O)Oc1cc2c(cc1OC)[C@@]1(CS[C@@H]3c4c(OC(C)=O)c(C)c5c(c4[C@H](COC1=O)N1C3[C@H]3c4c(cc(C)c(OC)c4O)C[C@@H]([C@@H]1O)N3C)OCO5)NCC2 (stereo partly shown) [Compound 60],5,5,5,10,5,–,–,–,–,–
CCCC(=O)Oc1cc2c(cc1OC)[C@@]1(CS[C@@H]3c4c(OC(C)=O)c(C)c5c(c4[C@H](COC1=O)N1C3[C@H]3c4c(cc(C)c(OC)c4OC(=O)CCC)C[C@@H]([C@@H]1C#N)N3C)OCO5)NCC2 (stereo partly shown) [Compound 9],0.11,0.11,0.11,0.11,0.11,–,–,–,–,–
CCCOc1cc2c(cc1OC)[C@@]1(CS[C@@H]3c4c(OC(C)=O)c(C)c5c(c4[C@H](COC1=O)N1C3[C@H]3c4c(cc(C)c(OC)c4OCCC)C[C@@H]([C@@H]1C#N)N3C)OCO5)NCC2 (stereo partly shown) [Compound 40],1170,1170,–,1170,1170,1170,–,–,–,–
COc1cc2c(cc1OC(=O)/C=C/c1ccccc1)CCN[C@]21CS[C@@H]2c3c(OC(C)=O)c(C)c4c(c3[C@H](COC1=O)N1C2[C@H]2c3c(cc(C)c(OC)c3OC(=O)/C=C/c3ccccc3)C[C@@H]([C@@H]1C#N)N2C)OCO4 (stereo partly shown) [Compound 10],9.7,9.7,–,9.7,9.7,9.7,–,–,–,–
CCCC(=O)Oc1cc2c(cc1OC)[C@@]1(CS[C@@H]3c4c(OC(C)=O)c(C)c5c(c4[C@H](COC1=O)N1C3[C@H]3c4c(cc(C)c(OC)c4O)C[C@@H]([C@@H]1C#N)N3C)OCO5)NCC2 (stereo partly shown) [Compound 7],0.595,0.119,0.595,0.119,0.119,–,–,–,–,–
CCCCCCCC(=O)Oc1cc2c(cc1OC)[C@@]1(CS[C@@H]3c4c(OC(C)=O)c(C)c5c(c4[C@H](COC1=O)N1C3[C@H]3c4c(cc(C)c(OC)c4O)C[C@@H]([C@@H]1C#N)N3C(=O)OC(C)(C)C)OCO5)NCC2 (stereo partly shown) [Compound 195],10.2,10.2,10.2,10.2,10.2,–,–,–,–,–
CCCCCCCC(=O)Oc1c(C)c2c(c3c1[C@H]1SC[C@]4(NCCc5cc(OC(=O)OC(C)(C)C)c(OC)cc54)C(=O)OC[C@@H]3N3C1[C@H]1c4c(cc(C)c(OC)c4O)C[C@@H]([C@@H]3C#N)N1C)OCO2 (stereo partly shown) [Compound 119],10.5,10.5,10.5,10.5,10.5,–,–,–,–,–
C=CCOc1cc2c(cc1OC)[C@@]1(CS[C@@H]3c4c(OC(C)=O)c(C)c5c(c4[C@H](COC1=O)N1C3[C@H]3c4c(cc(C)c(OC)c4O)C[C@@H]([C@@H]1C#N)N3C)OCO5)NCC2 (stereo partly shown) [Compound 41],1.23,1.23,–,1.23,1.23,1.23,–,–,–,–
CCCCCCCCCCCCCCCC(=O)Oc1cc2c(cc1OC)[C@@]1(CS[C@@H]3c4c(OC(C)=O)c(C)c5c(c4[C@H](COC1=O)N1C3[C@H]3c4c(cc(C)c(OC)c4O)C[C@@H]([C@@H]1C#N)N3C)OCO5)NCC2 (stereo partly shown) [Compound 16],9.91,9.91,9.91,9.91,9.91,–,–,–,–,–
CCCCCCCCCCCCCCCC(=O)Oc1cc2c(cc1OC)[C@@]1(CS[C@@H]3c4c(OC(C)=O)c(C)c5c(c4[C@H](COC1=O)N1C3[C@@H]3N[C@@H](Cc4cc(C)c(OC)c(O)c43)[C@@H]1C#N)OCO5)NCC2 (stereo partly shown) [Compound 207],5.03,5.03,5.03,5.03,5.03,–,–,–,–,–
COc1cc2c(cc1OCc1ccccc1)CCN[C@]21CS[C@@H]2c3c(OC(C)=O)c(C)c4c(c3[C@H](COC1=O)N1C2[C@H]2c3c(cc(C)c(OC)c3O)C[C@@H]([C@@H]1C#N)N2C)OCO4 (stereo partly shown) [Compound 43],–,–,–,–,–,1.16,1.16,1.16,1.16,1.16
CCCOc1cc2c(cc1OC)[C@@]1(CS[C@@H]3c4c(OC(C)=O)c(C)c5c(c4[C@H](COC1=O)N1C3[C@H]3c4c(cc(C)c(OC)c4O)C[C@@H]([C@@H]1O)N3C)OCO5)NCC2 (stereo partly shown) [Compound 69],0.623,0.623,0.623,0.125,0.623,–,–,–,–,–
COc1cc2c(cc1O)CCN[C@]21CS[C@@H]2c3c(O)c(C)c4c(c3[C@H](COC1=O)N1C2[C@H]2c3c(cc(C)c(OC)c3O)C[C@@H]([C@@H]1C#N)N2C)OCO4 (stereo partly shown) [Compound 136],0.137,0.137,0.137,0.137,0.137,–,–,–,–,–
C=CCOc1cc2c(cc1OC)[C@@]1(CS[C@@H]3c4c(OC(C)=O)c(C)c5c(c4[C@H](COC1=O)N1C3[C@H]3c4c(cc(C)c(OC)c4OCC=C)C[C@@H]([C@@H]1C#N)N3C)OCO5)NCC2 (stereo partly shown) [Compound 42],11.8,11.8,–,11.8,11.8,11.8,–,–,–,–
CCCCCCCCCCCCCCCC(=O)Oc1c(C)c2c(c3c1[C@H]1SC[C@]4(NCCc5cc(OC(=O)OC(C)(C)C)c(OC)cc54)C(=O)OC[C@@H]3N3C1[C@H]1c4c(cc(C)c(OC)c4OC(=O)CCCCCCCCCCCCCCC)C[C@@H]([C@@H]3C#N)N1C)OCO2 (stereo partly shown) [Compound 122],830,830,830,830,830,–,–,–,–,–
